The values that follow are results of earlier work, collected in patent US11235023B2, “Beta-hairpin peptidomimetic with elastase inhibitory activity and aerosol dosage forms thereof” (POLYPHOR AG, priority 2016, dated 2022).

The target in one data set is T1, neutrophil elastase (Mus musculus, UniProt Q3UP87).
T1 sequence (Q3UP87 27-265): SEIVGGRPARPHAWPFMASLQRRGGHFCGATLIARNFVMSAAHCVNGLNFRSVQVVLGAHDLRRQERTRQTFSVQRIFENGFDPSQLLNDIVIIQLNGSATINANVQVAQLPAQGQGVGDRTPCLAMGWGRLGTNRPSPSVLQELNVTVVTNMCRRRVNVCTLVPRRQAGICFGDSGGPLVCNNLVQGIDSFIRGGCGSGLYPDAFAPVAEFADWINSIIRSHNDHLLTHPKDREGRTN
Particulars: mouse model of neutrophil allergen challenge; cited from earlier work.

For a further data set, the system named is elastase. The following applies: nasal instillation, CD-1 mice; cited from earlier work.

For the compound `CC(C)(C)C(=O)Oc1ccc(S(=O)(=O)Nc2ccccc2C(=O)NCC(=O)O)cc1` [sivelelstat], the “Effect on airway hyperresponsiveness and inflammation” value on neutrophil elastase was “attenuates airway hyperresponsiveness and inflammation”. With “rhalpha1PI: recombinant form of the elastase inhibitor alpha-1-proteinase inhibitor (alpha1PI)”, the “Protection against elastase-mediated injury” value in the data set with elastase is “highly protective”.
